Reference: US10865191B2, “Heterocyclic compounds useful as modulators of TNF alpha” (BRISTOL-MYERS SQUIBB COMPANY, priority 2015, dated 2020)
pIC50: −log10 of the molar value. Where two headings read alike, the source gives them in different places.

Target: TNFα (Homo sapiens, UniProt P01375)
Test: TNF induced HEK-Blue assay (NF-kB-driven secreted alkaline phosphatase reporter)
Format: cell-based
Conditions: TNFα 0.5 ng/mL, HEK-Blue-CD40L cells, 18 h
Procedure: TNF or CD40L-Induced HEK-Blue Assay
Test compounds serially diluted in DMSO were plated in an assay plate (LABCYTE, Cat. # LP-0200) at final concentrations ranging from 0.004 μM to 25 μM. TNFα (final concentration 0.5 ng/mL) or CD40L (final concentration 30 ng/mL) in assay buffer [DMEM, 4.5 g/l glucose (Gibco, Cat. 21063-029), 10% FBS (Sigma, F4135), 1% Penicillin-Streptomycin (Gibco, Cat. 15140-122), 1% Anti-Anti (Gibco, Cat. 15240-112) and 2 mM L-glutamine (Gibco, Cat. 25030-081)] was then added to the assay plate. After a 30 minute pre-incubation at 37° C. and 5% CO2, HEK-Blue™-CD40L cells (INVIVOGEN, Cat. Code hkb-cd40) containing a NF-kB-driven secreted alkaline phosphatase reporter gene were seeded into the assay plate at a density of 20,000 cells per well. This plate was then incubated for 18 h at 37° C. and 5% CO2. Secreted alkaline phosphatase expression was measured using QUANTI-Blue™ (INVIVOGEN, Cat. Code rep-qb1) according to manufacturer's specifications and the assay plate was read on a PerkinElmer Envision at 620 nm.
Inhibition data for the test compound over a range of concentrations was plotted as percentage inhibition of the test compound (100%=maximum inhibition). IC50 values were determined after correcting for background [(sample read-mean of low control)/(mean of high control-mean of low control)] where by the low control is DMSO without stimulation and high control is DMSO with stimulation. The IC50 is defined as the concentration of test compound which produces 50% inhibition and was quantified using the 4 parameter logistic equation to fit the data.

[1] = read-out: TNF induced HEK-Blue assay IC50 value

Chain of TNFα (P01375 77-233 limits assumed): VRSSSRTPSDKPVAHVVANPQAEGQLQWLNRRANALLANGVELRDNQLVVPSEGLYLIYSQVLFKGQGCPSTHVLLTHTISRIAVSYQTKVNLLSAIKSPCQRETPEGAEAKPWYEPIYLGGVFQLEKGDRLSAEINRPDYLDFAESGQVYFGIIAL

| Compound | pIC50 [1] | pIC50 (TNF induced HEK-Blue assay IC50 value) |
| --- | --- | --- |
| C[C@@H](Nc1c(Cl)cnc2ccccc12)c1cc(-c2cnc(C3CC3)nc2)ccc1F [Example 519, (R)-3-chloro-N-(1-(5-(2-cyclopropylpyrimidin-5-yl)-2-fluorophenyl)ethyl) quinolin-4-amine] | 5.00 to 6.00 |  |
| CCC(Nc1c(Cl)cnc2ccc(-c3cnc(C(C)(C)O)nc3)cc12)c1ccccc1F (racemic) [Example 190, 2-(5-(3-chloro-4-((1-(2-fluorophenyl)propyl)amino)quinolin-6-yl)pyrimidin-2-yl)propan-2-ol] |  | > 6.00 |
| C[C@@H](Nc1c(Cl)cnc2ccccc12)c1cc(-c2ccncc2)ccc1F [Example 468, (R)-3-chloro-N-(1-(2-fluoro-5-(pyridin-4-yl)phenyl)ethyl)quinolin-4-amine] | 5.00 to 6.00 |  |
| C[C@@H](Nc1c(Cl)cnc2ccccc12)c1cc(-c2cccnc2)ccc1F [Example 461, (R)-3-chloro-N-(1-(2-fluoro-5-(pyridin-3-yl)phenyl)ethyl)quinolin-4-amine] | > 6.00 |  |
| C[C@@H](Nc1c(Cl)cnc2ccc(Br)cc12)c1cc(-c2cncnc2)ccc1F [Example 532, (R)-6-bromo-3-chloro-N-(1-(2-fluoro-5-(pyrimidin-5-yl)phenyl)ethyl)quinolin-4-amine] | > 6.00 |  |
| O=C(O)CN1CCN(c2ncc(-c3ccc4ncc(Cl)c(N[C@@H](c5ccccc5F)C(F)F)c4c3)cn2)CC1=O [Example 76, (S)-2-(4-(5-(3-chloro-4-((2,2-difluoro-1-(2-fluorophenyl)ethyl)amino)quinolin-6-yl)pyrimidin-2-yl)-2-oxopiperazin-1-yl)acetic acid] | > 6.00 |  |
| C[C@@H](Nc1c(Cl)cnc2ccc(-c3cnc(C(C)(C)O)nc3)cc12)c1cc(C2NC(=O)NC2=O)ccc1F (single isomer, unassigned) [Example 422] | > 6.00 |  |
| CC(C)(O)c1ncc(-c2ccc3ncc(Cl)c(NCc4ccc(OC(F)F)cc4)c3c2)cn1 [Example 148, 2-(5-(3-chloro-4-((4-(difluoromethoxy)benzyl)amino)quinolin-6-yl)pyrimidin-2-yl)propan-2-ol] | 5.00 to 6.00 |  |
| COc1ccc(F)c([C@@H](C)Nc2c(Cl)c(C)nc3ccc(-c4cnc(C(C)(C)O)nc4)cc23)c1 [Example 326, (R)-2-(5-(3-chloro-4-((1-(2-fluoro-5-methoxyphenyl)ethyl)amino)-2-methylquinolin-6-yl)pyrimidin-2-yl)propan-2-ol] | > 6.00 |  |
| CC(Nc1c(Cl)cnc2ccc(-c3ccc(C(C)(C)O)cc3)cc12)c1cccnc1 (racemic) [Example 166, 2-(4-(3-chloro-4-((1-(pyridin-3-yl)ethyl)amino)quinolin-6-yl)phenyl)propan-2-ol] | 4.60 to 5.00 |  |

More lines, now with the values ahead:

| pIC50 [1] | pIC50 (TNF induced HEK-Blue assay IC50 value) | Compound |
| --- | --- | --- |
| > 6.00 |  | CC(C)(O)c1ccc(-c2ccc3ncc(Cl)c(NC(CCF)c4ccccc4F)c3c2)cc1 (racemic) [Example 232, 2-(4-(3-chloro-4-((3-fluoro-1-(2-fluorophenyl)propyl)amino)quinolin-6-yl)phenyl)propan-2-ol] |
| > 6.00 |  | COC(=O)CN1CCN(c2ncc(-c3ccc4ncc(Cl)c(N[C@H](C)c5ccccc5F)c4c3)cn2)CC1 [Example 224] |
| > 6.00 |  | C[C@@H](Nc1c(Cl)cnc2ccccc12)c1cc(-c2ccc(N)nc2)ccc1F [Example 478, (R)—N-(1-(5-(6-aminopyridin-3-yl)-2-fluorophenyl)ethyl)-3-chloroquinolin-4-amine] |
| > 6.00 |  | C=Cc1ccc(F)c(C(CC)Nc2c(Cl)cnc3ccc(-c4cnc(C(C)(C)O)nc4)cc23)n1 (racemic) [Example 126, 2-(5-(3-chloro-4-((1-(3-fluoro-6-vinylpyridin-2-yl)propyl)amino)quinolin-6-yl)pyrimidin-2-yl)propan-2-ol] |
| > 6.00 |  | C[C@@H](Nc1c(Cl)cnc2ccc(-c3cnc(N4CCN(CC(=O)NS(C)(=O)=O)CC4)nc3)cc12)c1ccccc1F [Example 91, (R)-2-(4-(5-(3-chloro-4-((1-(2-fluorophenyl)ethyl)amino)quinolin-6-yl)pyrimidin-2-yl)piperazin-1-yl)-N-(methylsulfonyl)acetamide] |
